The source of these data is PMC6891286, “Towards the Development of an In vivo Chemical Probe for Cyclin G Associated Kinase (GAK)” (Molecules, 2019).

Each structure is given as a SMILES string. pKi: −log10 of the molar value.

The pKi is −log10 of the Ki, conventionally taken in molar units.

One assay concerns the target T1, GAK (Homo sapiens, UniProt O14976).
T1 sequence (O14976 1-1311): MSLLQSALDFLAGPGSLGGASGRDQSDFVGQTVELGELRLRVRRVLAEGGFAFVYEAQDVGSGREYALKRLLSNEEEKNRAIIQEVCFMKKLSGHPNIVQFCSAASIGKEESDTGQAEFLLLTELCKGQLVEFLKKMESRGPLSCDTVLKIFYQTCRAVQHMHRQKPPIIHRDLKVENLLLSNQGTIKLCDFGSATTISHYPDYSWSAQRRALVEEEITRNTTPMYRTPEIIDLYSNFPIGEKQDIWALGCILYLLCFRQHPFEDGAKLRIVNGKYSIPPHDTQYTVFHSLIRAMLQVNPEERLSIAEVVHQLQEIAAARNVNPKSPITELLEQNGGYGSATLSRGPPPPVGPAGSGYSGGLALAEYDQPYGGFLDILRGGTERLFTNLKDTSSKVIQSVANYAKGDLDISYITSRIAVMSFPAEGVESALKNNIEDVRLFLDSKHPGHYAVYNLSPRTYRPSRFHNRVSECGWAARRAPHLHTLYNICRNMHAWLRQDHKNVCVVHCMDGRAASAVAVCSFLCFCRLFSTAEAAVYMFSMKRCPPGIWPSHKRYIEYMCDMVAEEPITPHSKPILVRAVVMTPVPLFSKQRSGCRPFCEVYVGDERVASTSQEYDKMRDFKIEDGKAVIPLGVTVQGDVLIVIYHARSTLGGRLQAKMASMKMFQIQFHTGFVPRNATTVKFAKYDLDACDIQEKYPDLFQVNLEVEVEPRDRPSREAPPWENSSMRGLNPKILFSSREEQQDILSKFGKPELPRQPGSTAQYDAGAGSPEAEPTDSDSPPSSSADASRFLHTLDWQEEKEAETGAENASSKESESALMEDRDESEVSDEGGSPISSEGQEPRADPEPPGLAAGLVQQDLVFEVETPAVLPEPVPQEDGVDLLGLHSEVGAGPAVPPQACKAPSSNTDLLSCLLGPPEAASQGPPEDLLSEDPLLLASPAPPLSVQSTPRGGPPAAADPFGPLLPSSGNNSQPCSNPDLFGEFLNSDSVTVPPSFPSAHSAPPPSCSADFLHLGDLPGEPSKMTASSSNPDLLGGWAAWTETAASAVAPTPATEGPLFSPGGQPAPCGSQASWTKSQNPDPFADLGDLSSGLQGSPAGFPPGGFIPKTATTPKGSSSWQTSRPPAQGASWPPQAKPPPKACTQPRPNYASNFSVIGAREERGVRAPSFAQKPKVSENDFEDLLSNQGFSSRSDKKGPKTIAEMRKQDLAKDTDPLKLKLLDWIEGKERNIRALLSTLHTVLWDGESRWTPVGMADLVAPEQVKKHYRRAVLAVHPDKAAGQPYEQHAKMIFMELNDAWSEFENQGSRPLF
The following applies: TR-FRET assay; read-out: Biochemical GAK Ki; cited from earlier work. A general note: TR-FRET usually uses a lanthanide donor and a delayed reading to cut background.

The next assay concerns FLT3(ITD,F691L). Briefly: KINOMEscan. The following applies: 35 at 1 µM; read-out: % inhibition. Format: binding, human. The procedure: KinomeScan Assay on 35 was performed as previously described at EuroFins DiscoverX (Fremont, CA, USA).

`COc1cc2nccc(Nc3cc(OC)c(OC)c(OC)c3)c2cc1OC` [Compound 8]: on GAK, the pKi is 9.27.
Take `Brc1ccc2nccc(Nc3ccc4cn[nH]c4c3)c2c1` [Compound 35, 6-Bromo-N-(1H-indazol-6-yl)quinolin-4-amine]: the activity in the assay on FLT3(ITD,F691L) was 100%.
